Data as given in US11524040B2, “Composition for the treatment of acne” (priority 2020, dated 2022).

Tests used:
Interleukin-6 (IL-6) = test: Interleukin-6 expression in keratinocytes; type: cell-based, human; conditions: 24-hour treatment, CBD isolate at same concentration as present in the invention
Experimental: (§1) In a study using human primary keratinocytes, two formulations were analyzed, Natural Blemish Light Lotion (NB) and Natural Blemish OTC Lotion (OTC) for unique properties. All the following experiments include a 24-hour treatment of the finished products used in the dilutions shown and were analyzed by quantitative polymerase chain reaction (qPCR).
Interleukin-6 (IL-6) is a well-established marker for inflammation. Largely produced in the skin by keratinocytes, its production leads to the activation of the STAT3 pathway which has been linked to the pathogenesis of many inflammatory skin diseases (Activation of Janus kinase signaling pathway in acne lesions, Sara Mohamed Awad, Yasmin Mostafa Tawfik, Mohamed Ahmed El-Mokhtar, Amira F. El-Gazzar, Amira Ali Abdel Motaleb First published: 19 Nov. 2020 https://doi.org/10.1111/dth.14563). In addition, IL-6 exerts stimulatory effects on T-cells and B-cells, thus favoring chronic inflammatory responses. (Gabay C. Interleukin-6 and chronic inflammation. Arthritis Res Ther. 2006; 8 Suppl 2(Suppl 2):S3. doi:10.1186/ar1917). […] That is, the compositions work better to reduce expression of IL-6 than the individual ingredients, namely CBD alone.

Fox-01 = test: FOX-01 expression in human primary sebocytes; type: cell-based; conditions: 100 ug/mL
Experimental: as §1
(§2) Because sebum production is a major factor in the pathophysiology of acne vulgaris, experiments were performed using human primary sebocytes isolated from the eye area. The main function of sebocytes is considered to be the production of lipids to moisturize the skin. However, it recently became apparent that sebocytes release chemokines and cytokines and respond to proinflammatory stimuli as well as the presence of bacteria. (Attii M, Lovászi M, Garzorz N, Atenhan A, Quaranta M, Lauffer F, Konstantinow A, Küpper M, Zouboulis C C, Kemeny L, Eyerich K, Schmidt-Weber C B, Töröcsik D, Eyerich S. Sebocytes contribute to skin inflammation by promoting the differentiation of T helper 17 cells. Br J Dermatol. 2018 March; 178(3):722-730. doi: 10.1111/bjd.15879. Epub 2018 Jan. 9. PMID: 28799643). The overproduction of sebum, proinflammatory chemokines and cytokines released from sebocytes all contribute to the formation of comedones on the skin. Both OTC and NB were studied as well as AP to investigate the efficacy of these products. […]

[1] = system: Tumor necrosis factor (TNF-α); test: TNF-α production in human primary sebocytes; type: cell-based; conditions: human primary sebocytes in vitro; CBD isolate at same concentration as present in the invention
Experimental: as §1, §2

C=C(C)[C@@H]1CCC(C)=C[C@H]1c1c(O)cc(CCCCC)cc1O [CBD isolate, Cannabidiol]
reduction of expression of IL-6 (Interleukin-6 (IL-6)): 6.0%
increase of Fox-01 expression (Fox-01): 50.8%
lowered production of TNF-α [1]: 14.0%
